Test results as given in US11793792B2, “Composition for prevention and treatment of hair growth disorders” (GIULIANI S.P.A., priority 2018, dated 2023).

Tests used:
Lef1 [1] = assay: LEF1 mRNA expression (RT-PCR) in Human Follicle Dermal Papilla Cells (HFDPC); assay type: cell-based; details: 24 h incubation; for Lef1 fold of change mRNA expression: normalized to GAPDH, relative to untreated calibrator (vehicle = 1)
Excerpt: In the present test, Hair cell line (derma papilla cells) were used rather than human hair follicle, as in the experiment of Example 4.
We evaluated the stimulation of Lef1 (marker of hair growth) and we retested compound 1 and compound 5 and we use also included the compound WAY-316660, a relatively non-toxic specific antagonist of SFRP1, which has already been used for the treatment of osteoporosis, for its known hair growth promotion activity (Rif. Hawkshaw et al. Plos Biol, 2018; https://journals.plos.org/plosbiology/article?id=10.1371/journal.pbio.2003705).
Biological Model Human Follicle Dermal Papilla Cells (HFDPC)
The cell line was cultured in Follicle Dermal Papilla Cell medium in 25 cm^2 culture flasks at 37° C., 5% CO2. Every two days confluent cultures were splitted 1:3-1:6, after washing with PBS 1× (without Ca2+ and Mg2+), using Trypsin/EDTA and seed at 2-5·10^4 cell/cm^2, 37° C., 5% CO2.
The expression of LEF1 was investigated by RT-PCR. The analysis was performed according to the reported method (Gibson et al, 1996; Heid et al, 1996) using TaqMan Gene Expression Assay supplied by Applied Biosystems. Briefly, within a gene-specific PCR oligonucleotide primer pair, an oligonucleotide probe labelled with a reporter fluorescent dye (FAM) at the 50-end and a quencher fluorescent dye (TAMURA) at the 30-end was designed. When the probe was intact, the reporter dye emission was quenched. During the extension phase of the PCR cycle, the nucleolytic activity of the DNA polymerase cleaved the hybridization probe and released the reporter dye from the probe. Fluorescence intensity produced during PCR amplifications was monitored by a sequence detector directly in the reaction tube (“real time”). A computer algorithm compared the amount of reporter dye emission with the quenching dye emission and calculated the threshold cycle number (CT) when signals reached ten times the standard deviation of the baseline, from which the levels of the mRNAs transcribed from the various genes tested were obtained (Gibson et al, 1996).
Gene expression analysis involves four following step: • 1. Treatments of cells with active compounds for 24 h; • 2. RNA extraction; • 3. cDNA retro transcription; • 4. Quantitative RT-PCR; Day 1: Seed cells
When the cells (Human Follicle Dermal Papilla Cells) reached approximately 80% confluence, they were harvested with trypsin/EDTA and seeded at a density of 1×10^6 cells/ml into 12-well plates and then incubated at 37° C., 5% CO2 (24 h).
When the cells reached approximately 80% confluence, complete medium was removed; cells were washed once with PBS 1× and the incubated in Human Follicle Dermal Papilla Cells at 37° C., 5% CO2 for at least 24 h;
Compounds to be tested (WAY316606, 1, 5, 7, 17, 18, 20, 21, 24) were dissolved in DMSO and diluted at final concentration in Human Follicle Dermal Papilla Cells.
Cells were then incubated at 37° C., 5% CO2 for different 24 h.
Total RNAs were extracted from the cells using Tri Reagent (Thermo Fisher), that is a single, homogenous solution for the isolation of total RNA. This procedure is an improvement of the single-step method reported by (Chomczynski and Mackey, 1995) for total RNA isolation. Tri Reagent, a mixture of guanidine thiocyanate and phenol in a monophase solution, effectively dissolves DNA, RNA, and protein on homogenization or lysis of tissue sample and contains a unique combination of denaturants and RNase inhibitors and is used in a convenient, single-step disruption/separation procedure.
Total RNA, extracted and quantified, was amplified using the “PRIME SCRIPT RT reagent kit (Perfect Real time) (Takara).
For amplification we used the Real time PCR System Mx3000P (Stratagene) and each total RNA was amplified in duplicate.
The RT-PCR analysis was set, using TaqMan linear probes (Applied Biosystems). Those probes are the most widely used and published detection chemistry for qPCR applications. […]

Lef1 [2] = assay: Lef1 gene expression (qRT-PCR) in human hair follicle organ culture; assay type: cell-based; details: microdissected human anagen VI scalp hair follicles; 15 μM; treated 6 hours; normalized on GAPDH; vehicle = 1; N=8 HFs/group from 1 donor
Procedure: Evidence of the activity of compounds of the invention is provided by the expression of Lymphoid enhancer binding factor-1 (Lef1), which plays an important role in bulge stem cells cell growth and differentiation (International Journal of Medical Sciences 2013; 10 (6):738-746).
These products were reconstituted in DMSO (stock solution) and intermediate or working solutions were prepared diluting the stock or the intermediate solution in William's E medium. […]
RNA was extracted from hair follicles with RNeasy kit (Qiagen, USA), and reverse transcribed with Tetro cDNA synthesis kit (Bioline) according to manufacturer's instructions. qPCR was performed in QuantStudio3 (Thermo Fisher) with Taqman probe for Axin2 (Hs00610344_m1, Thermo Fisher), Lef1 (Hs01547250_m1, Thermo Fisher), b-actin (Hs01060665_g1, Life Technologies) and Gapdh (Hs02758991_g1, Thermo Fisher). Expression levels were calculated with the delta-delta CT method. […]

Row | Compound | effect on LEF1 mRNA expression / activity (in words) (Lef1 [1]) | Lef1 fold of change mRNA expression (Lef1 [1]) | genic expression of Lef1 (mRNA), mean (Lef1 [2]) | effect on LEF1 mRNA expression / activity (in words) (Lef1 [1]; listed as 1) | effect on LEF1 mRNA expression / activity (in words) (Lef1 [1]; listed as 5)
1 | CCOC(=O)c1c(NC(=O)CC2SC(=N)NC2=O)sc(Br)c1C (centres unmarked) [Compound C7] | more active | 2.46 | – | – | –
2 | COC(=O)c1c(NC(=O)CC2SC(=N)NC2=O)sc(C)c1C (centres unmarked) [Compound C1, 2-(2-(2-Imino-4-oxo-thiazolidin-5-yl)-acetylamino)-4,5-dimethyl-thiophene-3-carboxylic acid methyl ester] | more active | 8.43 | 3.425 | major induction of Lef1 | –
3 | COC(=O)c1cc(-c2ccccc2)sc1NC(=O)CC1SC(=N)NC1=O (centres unmarked) [Compound C18] | – | 1.56 | – | – | –
4 | N=C1NC(=O)C(CC(=O)Nc2scc(C3CCC3)c2C(N)=O)S1 (centres unmarked) [Compound C24] | – | 1.88 | – | – | –
5 | O=S(=O)(NC1CCNCC1)c1cc(S(=O)(=O)c2ccccc2)ccc1C(F)(F)F [WAY-316606, reference compound] | – | 2.18 | – | – | –
6 | CCOC(=O)c1c(NC(=O)CC2SC(=N)NC2=O)sc(C)c1C (centres unmarked) [Compound C5, 2-(2-(2-Imino-4-oxo-thiazolidin-5-yl)-acetylamino)-4,5-dimethyl-thiophene-3-carboxylic acid ethyl ester] | more active | 6.05 | 6.134 | – | major induction of Lef1
7 | CCOC(=O)c1c(NC(=O)CC2SC(=N)NC2=O)sc(C)c1-c1ccccc1 (centres unmarked) [Compound C20] | – | 1.39 | – | – | –
8 | CCOC(=O)c1c(C2CC2)csc1NC(=O)CC1SC(=N)NC1=O (centres unmarked) [Compound C21] | – | 1.79 | – | – | –
9 | COC(=O)c1ccsc1NC(=O)CC1SC(=N)NC1=O (centres unmarked) [Compound C17] | more active | 2.52 | – | – | –
